This passage reports EC50 results from article PMC7504104, “Dietary Intake of Rosmarinic Acid Increases Serum Inhibitory Activity in Amyloid A Aggregation and Suppresses Deposition in the Organs of Mice” (International Journal of Molecular Sciences, 2020).

The target of this experiment is T1, recombinant mouse SAA 1.1 (mSAA) (Mus musculus, UniProt P05366).
T1 construct: gene Saa1; cDNA in pET-15b, expressed in E. coli Rosetta, Ni Sepharose purified
T1 sequence (P05366 20-122): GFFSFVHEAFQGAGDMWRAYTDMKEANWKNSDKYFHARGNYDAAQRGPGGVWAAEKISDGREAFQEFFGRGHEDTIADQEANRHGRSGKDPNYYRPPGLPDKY
The experiment can be described thus: quantum-dot fluorescence imaging of amyloid aggregation inhibition (MSHTS). The experiment is classed as biochemical.

`O=C(/C=C/c1ccc(O)c(O)c1)O[C@H](Cc1ccc(O)c(O)c1)C(=O)O` [RA, rosmarinic acid]: the EC50 (commonly the concentration at which the effect is half-maximal) is 33.2 ± 2.19 µM.
